Experimental data taken from ChEMBL document CHEMBL4602617, “Discovery and optimization of heteroaryl piperazines as potent and selective PI3Kδ inhibitors” (Bioorg Med Chem Lett, 2020).

How the values were obtained:
[1] = molecular target: Vasopressin V2 receptor (Homo sapiens) (UniProt P30518); assay: Displacement of [3H]-(Arg8)-Vasopressin from recombinant full length human V2 receptor expressed in CHO-K1 cells at 10 uM after 120 mins by radiometric scintillation analysis relative to control; assay type: cell-based
[2] = molecular target: Tyrosine-protein kinase Lck (Homo sapiens, UniProt P06239); assay: Inhibition of recombinant full length human His-tagged LCK expressed in baculovirus expression system using tyrosine-2 peptide as substrate incubated for 60 mins in presence of ATP by Z'-LYTE assay
[3] = molecular target: Ribosomal protein S6 kinase alpha-1 (Homo sapiens, UniProt Q15418); assay: Inhibition of recombinant full length human His-tagged RPS6KA1 expressed in baculovirus expression system using […] peptide as substrate incubated for 60 mins in presence of ATP by Z'-LYTE assay
[4] = molecular target: Maternal embryonic leucine zipper kinase (Homo sapiens, UniProt Q14680); assay: Inhibition of recombinant human GST-tagged MELK catalytic domain expressed in baculovirus expression system using serine/threonine-17 peptide as substrate incubated for 60 mins in presence of ATP by Z'-LYTE assay
[5] = molecular target: Serine/threonine-protein kinase mTOR (Homo sapiens, UniProt P42345); assay: Inhibition of recombinant human GST-tagged mTOR catalytic domain (1360 to 2549 residues) expressed in baculovirus expression system using serine/threonine-11 peptide as substrate incubated for 60 mins in presence of ATP by Z'-LYTE assay
[6] = molecular target: 5-hydroxytryptamine receptor 1A (Homo sapiens) (UniProt P08908); assay: Displacement of [3H]-8-OH-DPAT from full length human recombinant 5HT1A receptor expressed in CHOK-1 cells at 10 uM measured after 60 mins by radiometric scintillation analysis relative to control; assay type: cell-based
[7] = molecular target: Phosphatidylinositol 4-phosphate 3-kinase C2 domain-containing subunit beta (Homo sapiens, UniProt O00750); assay: Inhibition of recombinant GST-tagged human PIK3C2B catalytic domain expressed in baculovirus expression system using PI as substrate after 1 hr in presence of ATP by Adapta assay
Sequence of Phosphatidylinositol 4-phosphate 3-kinase C2 domain-containing subunit beta (O00750 whole entry, the tested form may be a part): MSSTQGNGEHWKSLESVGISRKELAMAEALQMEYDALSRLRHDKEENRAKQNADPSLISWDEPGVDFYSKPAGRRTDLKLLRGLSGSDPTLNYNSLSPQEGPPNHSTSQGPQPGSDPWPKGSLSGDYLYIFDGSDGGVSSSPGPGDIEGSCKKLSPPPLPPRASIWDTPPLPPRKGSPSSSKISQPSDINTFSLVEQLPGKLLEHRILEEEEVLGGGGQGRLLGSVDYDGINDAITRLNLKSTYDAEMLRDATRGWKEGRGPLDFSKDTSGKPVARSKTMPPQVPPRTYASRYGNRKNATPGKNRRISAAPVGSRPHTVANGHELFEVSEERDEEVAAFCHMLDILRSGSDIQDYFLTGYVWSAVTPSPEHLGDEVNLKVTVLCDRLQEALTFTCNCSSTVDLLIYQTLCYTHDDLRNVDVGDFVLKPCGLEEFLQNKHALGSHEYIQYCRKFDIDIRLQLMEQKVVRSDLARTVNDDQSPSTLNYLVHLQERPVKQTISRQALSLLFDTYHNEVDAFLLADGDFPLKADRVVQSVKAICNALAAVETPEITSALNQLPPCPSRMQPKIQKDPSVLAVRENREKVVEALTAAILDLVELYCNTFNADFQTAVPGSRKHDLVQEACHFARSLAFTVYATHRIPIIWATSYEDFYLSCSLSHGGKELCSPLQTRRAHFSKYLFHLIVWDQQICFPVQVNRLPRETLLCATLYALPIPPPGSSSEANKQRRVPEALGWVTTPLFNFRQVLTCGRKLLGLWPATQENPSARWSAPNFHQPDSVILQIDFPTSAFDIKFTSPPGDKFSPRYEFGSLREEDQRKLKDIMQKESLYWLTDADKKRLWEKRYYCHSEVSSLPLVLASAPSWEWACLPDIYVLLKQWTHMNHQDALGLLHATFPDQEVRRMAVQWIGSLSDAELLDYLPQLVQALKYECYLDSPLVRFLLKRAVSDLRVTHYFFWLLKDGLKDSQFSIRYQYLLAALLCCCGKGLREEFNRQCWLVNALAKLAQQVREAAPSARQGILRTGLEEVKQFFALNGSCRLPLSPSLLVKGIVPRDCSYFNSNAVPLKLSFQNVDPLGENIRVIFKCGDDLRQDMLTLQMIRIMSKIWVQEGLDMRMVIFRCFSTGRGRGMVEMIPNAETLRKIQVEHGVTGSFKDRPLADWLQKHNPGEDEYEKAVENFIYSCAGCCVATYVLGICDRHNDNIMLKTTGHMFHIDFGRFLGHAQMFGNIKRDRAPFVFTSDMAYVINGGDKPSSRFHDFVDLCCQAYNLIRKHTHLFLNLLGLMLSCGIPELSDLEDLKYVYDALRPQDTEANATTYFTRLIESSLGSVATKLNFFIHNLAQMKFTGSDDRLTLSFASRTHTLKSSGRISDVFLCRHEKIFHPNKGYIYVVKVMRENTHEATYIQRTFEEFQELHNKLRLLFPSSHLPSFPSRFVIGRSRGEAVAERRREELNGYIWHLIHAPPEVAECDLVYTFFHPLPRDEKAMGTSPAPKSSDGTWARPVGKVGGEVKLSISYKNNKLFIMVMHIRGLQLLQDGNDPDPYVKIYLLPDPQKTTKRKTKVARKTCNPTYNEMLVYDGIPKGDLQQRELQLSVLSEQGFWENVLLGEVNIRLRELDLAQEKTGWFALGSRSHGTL

[8] = molecular target: Serine/threonine-protein kinase D1 (Homo sapiens, UniProt Q15139); assay: Inhibition of recombinant full length human GST-tagged PKCmu expressed in baculovirus expression system using serine/threonine-17 peptide as substrate incubated for 60 mins in presence of ATP by Z'-LYTE assay
[9] = molecular target: Serine/threonine-protein kinase PLK1 (Homo sapiens, UniProt P53350); assay: Inhibition of recombinant full length human His-tagged PLK1 expressed in baculovirus expression system using serine/threonine-16 peptide as substrate incubated for 60 mins in presence of ATP by Z'-LYTE assay
[10] = molecular target: B1 bradykinin receptor (Homo sapiens) (UniProt P46663); assay: Inhibition of human B1 bradykinin receptor at 10 uM relative to control
Sequence of B1 bradykinin receptor (Homo sapiens) (P46663 whole entry): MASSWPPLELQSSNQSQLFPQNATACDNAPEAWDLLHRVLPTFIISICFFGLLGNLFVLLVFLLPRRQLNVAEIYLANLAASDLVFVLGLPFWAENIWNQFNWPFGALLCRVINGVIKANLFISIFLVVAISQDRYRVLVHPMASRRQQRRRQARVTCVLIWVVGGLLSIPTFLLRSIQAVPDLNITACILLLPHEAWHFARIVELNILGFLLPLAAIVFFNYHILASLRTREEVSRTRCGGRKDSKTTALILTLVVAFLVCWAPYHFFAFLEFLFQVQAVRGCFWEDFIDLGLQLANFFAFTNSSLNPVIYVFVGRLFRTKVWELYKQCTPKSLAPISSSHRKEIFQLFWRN

[11] = molecular target: Protein kinase C beta type (Homo sapiens, UniProt P05771); assay: Inhibition of recombinant full length human GST-tagged PKCbeta2 expressed in insect expression system using serine/threonine-7 peptide as substrate incubated for 60 mins in presence of ATP by Z'-LYTE assay
[12] = molecular target: Serine/threonine-protein kinase pim-2 (Homo sapiens, UniProt Q9P1W9); assay: Inhibition of recombinant full length GST-tagged human PIM2 expressed in baculovirus expression system using Ser/Thr 07 as substrate after 1 hr in presence of ATP by Z'-LYTE assay
[13] = molecular target: Serine/threonine-protein kinase TBK1 (Homo sapiens, UniProt Q9UHD2); assay: Inhibition of recombinant full length human GST-tagged TBK1 expressed in insect expression system using serine/threonine-5 peptide as substrate incubated for 60 mins in presence of ATP by Z'-LYTE assay
[14] = molecular target: Mitogen-activated protein kinase 10 (Homo sapiens, UniProt P53779); assay: Inhibition of recombinant full length N-terminal GST-tagged human JNK3 expressed in baculovirus expression system using Ser/Thr-04 peptide as substrate after 1 hr in presence of ATP by Z'LYTE assay
[15] = molecular target: Proto-oncogene tyrosine-protein kinase ROS (Homo sapiens, UniProt P08922); assay: Inhibition of recombinant human GST-tagged ROS1 cytoplasmic domain expressed in baculovirus expression system using tyrosine-2 peptide as substrate incubated for 60 mins in presence of ATP by Z'-LYTE assay
Sequence of Proto-oncogene tyrosine-protein kinase ROS (P08922 whole entry, the tested form may be a part): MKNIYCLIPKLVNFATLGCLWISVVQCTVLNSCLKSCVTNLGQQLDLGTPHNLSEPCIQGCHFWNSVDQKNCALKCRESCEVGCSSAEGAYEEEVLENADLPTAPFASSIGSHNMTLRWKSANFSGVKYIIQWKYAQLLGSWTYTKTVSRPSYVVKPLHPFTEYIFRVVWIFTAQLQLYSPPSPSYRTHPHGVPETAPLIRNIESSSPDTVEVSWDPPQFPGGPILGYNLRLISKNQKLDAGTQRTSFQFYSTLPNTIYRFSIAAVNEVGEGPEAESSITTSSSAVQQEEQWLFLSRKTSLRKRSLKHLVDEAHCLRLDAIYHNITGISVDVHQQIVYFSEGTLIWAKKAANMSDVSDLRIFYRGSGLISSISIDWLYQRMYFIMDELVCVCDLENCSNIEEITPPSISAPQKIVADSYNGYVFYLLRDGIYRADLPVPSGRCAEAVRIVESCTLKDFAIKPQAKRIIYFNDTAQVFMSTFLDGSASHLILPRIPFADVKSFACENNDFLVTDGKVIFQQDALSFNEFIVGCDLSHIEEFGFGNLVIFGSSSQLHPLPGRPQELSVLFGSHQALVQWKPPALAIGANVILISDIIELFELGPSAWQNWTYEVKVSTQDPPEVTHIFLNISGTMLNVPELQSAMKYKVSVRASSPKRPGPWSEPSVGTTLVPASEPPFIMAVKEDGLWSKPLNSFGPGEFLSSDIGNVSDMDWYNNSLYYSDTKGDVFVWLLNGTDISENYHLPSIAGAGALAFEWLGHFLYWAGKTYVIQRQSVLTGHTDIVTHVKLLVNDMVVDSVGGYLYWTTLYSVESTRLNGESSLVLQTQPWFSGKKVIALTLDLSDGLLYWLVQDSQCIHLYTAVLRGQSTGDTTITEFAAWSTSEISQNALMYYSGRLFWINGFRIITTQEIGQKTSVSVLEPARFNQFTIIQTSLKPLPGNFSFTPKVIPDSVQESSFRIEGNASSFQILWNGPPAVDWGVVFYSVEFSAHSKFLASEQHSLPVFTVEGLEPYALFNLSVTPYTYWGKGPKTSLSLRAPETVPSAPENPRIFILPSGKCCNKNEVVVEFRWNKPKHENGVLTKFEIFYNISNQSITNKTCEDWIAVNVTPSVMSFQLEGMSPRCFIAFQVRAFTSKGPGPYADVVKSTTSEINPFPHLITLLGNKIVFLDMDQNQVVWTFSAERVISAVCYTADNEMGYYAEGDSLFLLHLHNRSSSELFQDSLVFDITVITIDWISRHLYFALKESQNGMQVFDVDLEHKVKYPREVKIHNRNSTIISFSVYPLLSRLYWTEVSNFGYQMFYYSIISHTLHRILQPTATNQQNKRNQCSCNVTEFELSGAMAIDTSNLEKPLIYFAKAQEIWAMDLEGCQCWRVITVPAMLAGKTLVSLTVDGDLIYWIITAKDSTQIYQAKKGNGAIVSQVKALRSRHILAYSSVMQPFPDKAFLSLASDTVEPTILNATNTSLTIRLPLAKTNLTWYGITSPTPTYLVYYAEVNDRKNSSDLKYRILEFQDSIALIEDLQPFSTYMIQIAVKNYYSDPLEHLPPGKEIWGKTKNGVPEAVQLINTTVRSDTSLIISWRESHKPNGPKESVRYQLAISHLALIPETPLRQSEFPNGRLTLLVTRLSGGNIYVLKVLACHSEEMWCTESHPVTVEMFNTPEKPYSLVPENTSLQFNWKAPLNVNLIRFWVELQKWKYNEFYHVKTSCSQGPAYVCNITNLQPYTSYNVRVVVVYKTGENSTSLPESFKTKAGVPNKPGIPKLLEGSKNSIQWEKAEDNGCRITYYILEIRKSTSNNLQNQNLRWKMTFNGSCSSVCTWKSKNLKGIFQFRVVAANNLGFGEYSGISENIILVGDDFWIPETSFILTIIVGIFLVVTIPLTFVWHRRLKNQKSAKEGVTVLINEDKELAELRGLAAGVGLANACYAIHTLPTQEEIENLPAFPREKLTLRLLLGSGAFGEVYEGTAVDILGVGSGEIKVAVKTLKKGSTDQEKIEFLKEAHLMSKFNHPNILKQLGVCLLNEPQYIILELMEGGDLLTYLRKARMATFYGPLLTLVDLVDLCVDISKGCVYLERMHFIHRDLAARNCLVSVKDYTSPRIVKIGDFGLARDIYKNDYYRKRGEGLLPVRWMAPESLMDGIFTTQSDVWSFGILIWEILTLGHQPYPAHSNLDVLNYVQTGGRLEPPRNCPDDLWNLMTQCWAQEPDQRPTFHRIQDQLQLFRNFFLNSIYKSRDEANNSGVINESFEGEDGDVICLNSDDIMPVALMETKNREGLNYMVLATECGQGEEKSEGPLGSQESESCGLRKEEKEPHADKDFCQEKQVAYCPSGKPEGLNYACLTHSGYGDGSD

[16] = molecular target: Tyrosine-protein kinase SYK (Homo sapiens, UniProt P43405); assay: Inhibition of recombinant full length human GST-tagged SYK expressed in baculovirus expression system using tyrosine-2 peptide as substrate incubated for 60 mins in presence of ATP by Z'-LYTE assay
[17] = molecular target: Protein kinase C alpha type (Homo sapiens, UniProt P17252); assay: Inhibition of recombinant human GST-tagged PKCalpha expressed in insect expression system using serine/threonine-7 peptide as substrate incubated for 60 mins in presence of ATP by Z'-LYTE assay
[18] = molecular target: Peroxisome proliferator-activated receptor alpha (Homo sapiens) (UniProt Q07869); assay: Inhibition of human PPARalpha expressed in Escherichia coli at 10 uM relative to control
[19] = molecular target: 3-phosphoinositide-dependent protein kinase 1 (Homo sapiens, UniProt O15530); assay: Inhibition of full length recombinant His-tagged human PDK1 expressed in baculovirus expression system using Ser/Thr 07 as substrate after 1 hr in presence of ATP by Z'LYTE assay
[20] = molecular target: Sodium-dependent noradrenaline transporter (Homo sapiens) (UniProt P23975); assay: Displacement of [125I]RTI-55 from full length recombinant human NET expressed in MDCK cells at 10 uM after 3 hrs by radiometric scintillation analysis relative to control; assay type: cell-based
[21] = molecular target: Testis-specific serine/threonine-protein kinase 1 (Homo sapiens, UniProt Q9BXA7); assay: Inhibition of recombinant full length human His-tagged TSSK1 expressed in baculovirus expression system using serine/threonine-4 peptide as substrate incubated for 60 mins in presence of ATP by Z'-LYTE assay
[22] = molecular target: Mitogen-activated protein kinase 3 (Homo sapiens, UniProt P27361); assay: Inhibition of recombinant full-length human ERK1 expressed in Escherichia coli at 10 uM using MBP as substrate after 30 mins by radiometric scintillation analysis relative to control
[23] = molecular target: Mitogen-activated protein kinase 1 (Homo sapiens, UniProt P28482); assay: Inhibition of recombinant full length human GST-tagged ERK2 expressed in Escherichia coli expression system using serine/threonine-3 peptide as substrate incubated for 60 mins in presence of ATP by Z'-LYTE assay
[24] = molecular target: Estrogen receptor (Homo sapiens) (UniProt P03372); assay: Displacement of [3H]estradiol from recombinant full length human recombinant ERalpha receptor expressed in Sf9 insect cells at 10 uMmeasured after 120 mins by radiometric scintillation analysis relative to control; settings: 10 uM
[25] = molecular target: Interleukin-1 receptor-associated kinase 1 (Homo sapiens, UniProt P51617); assay: Inhibition of recombinant human GST-tagged IRAK1 catalytic domain (194 to 712 residues) expressed in baculovirus expression system using Histone H3 (1-20) peptide as substrate incubated for 60 mins in presence of ATP by Adapta assay
Sequence of Interleukin-1 receptor-associated kinase 1 (P51617 whole entry, the tested form may be a part): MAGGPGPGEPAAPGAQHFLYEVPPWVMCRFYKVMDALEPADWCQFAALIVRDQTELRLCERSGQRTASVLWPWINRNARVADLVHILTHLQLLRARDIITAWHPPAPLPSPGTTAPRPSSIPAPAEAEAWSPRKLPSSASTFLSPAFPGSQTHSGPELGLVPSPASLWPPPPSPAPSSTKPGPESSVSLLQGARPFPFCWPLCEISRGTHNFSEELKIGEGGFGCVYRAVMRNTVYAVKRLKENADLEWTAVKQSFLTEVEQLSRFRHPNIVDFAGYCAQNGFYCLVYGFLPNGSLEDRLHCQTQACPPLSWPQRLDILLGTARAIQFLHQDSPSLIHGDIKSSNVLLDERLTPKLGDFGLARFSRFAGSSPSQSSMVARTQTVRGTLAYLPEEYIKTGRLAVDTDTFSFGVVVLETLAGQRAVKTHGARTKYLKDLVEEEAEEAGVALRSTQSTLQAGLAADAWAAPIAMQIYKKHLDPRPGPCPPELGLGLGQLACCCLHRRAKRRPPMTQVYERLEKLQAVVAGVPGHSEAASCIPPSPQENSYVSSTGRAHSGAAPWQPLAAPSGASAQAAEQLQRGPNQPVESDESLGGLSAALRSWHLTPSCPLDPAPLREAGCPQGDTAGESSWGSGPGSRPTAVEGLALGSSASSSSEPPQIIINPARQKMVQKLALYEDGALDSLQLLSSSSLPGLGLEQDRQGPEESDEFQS

MAO-B = MAO-B (Homo sapiens, UniProt P27338); assay: Inhibition of recombinant full-length human MAO-B expressed in insect cells at 10 uM using kynuramine as substrate after 60 mins by spectrophotometric analysis relative to control; settings: probe kynuramine

C[C@@H]1C[C@H]1C(=O)N1CCN(c2cnc(C#N)c(-c3cnn(C)c3)n2)C[C@H]1C
inhibition [1]: 1%
IC50 [2]: > 100 µM
IC50 [3]: > 100 µM
IC50 [4]: > 100 µM
IC50 [5]: > 100 µM
inhibition [6]: 9%
IC50 [7]: 40.5 µM
IC50 [8]: > 100 µM
IC50 [9]: > 100 µM
inhibition [10]: -1%
IC50 [11]: > 100 µM
IC50 [12]: > 100 µM
IC50 [13]: > 100 µM
IC50 [14]: 5.37 µM
IC50 [15]: > 100 µM
IC50 [16]: > 100 µM
IC50 [17]: > 100 µM
inhibition [18]: > 50%
IC50 [19]: > 100 µM
inhibition [20]: 3%
IC50 [21]: > 100 µM
inhibition [22]: 18%
IC50 [23]: > 100 µM
inhibition [24]: 0%
IC50 [25]: > 100 µM
inhibition at 1 h, 10 µM (MAO-B): 11%
